Measured values from US20130064878A1, “WOUND HEALING COMPOSITIONS AND METHODS” (UNIVERSITY OF NOTRE DAME DU LAC, priority 2011, published 2013).

Assays:
[1] = test system: wound gelatinolytic activity; test: In situ gelatin zymography of wound tissue (Example 3); assay type: in vivo, mouse; details: day 13; 0.25 mg/wound; compared to vehicle
Experimental: On day 7, half of the mice (n=10) were sacrificed and the wounds of each animal excised. […] On the day of sacrifice, the wounds of each mouse were excised, and analyzed by histology, gelatin zymography and Western blot, and in situ gelatin zymography. Specifically, one wound from each sacrificed animal was analyzed by in situ gelatin zymography, and one wound from each sacrificed animal was analyzed by gelatin zymography, followed by Western blot.
FIG. 2(A) is a graph of the wound closure measurements, determined every day of the study as [(initial−final)/initial]×100. […] FIG. 2(C) is a photograph of a representative skin lesion of a mouse treated with saline on day 13. […] Wound gelatinolytic activity is visualized using fluorescein isothiocyanate (FITC)-labeled substrate (right images), and 4′,6-diamidino-2-phenylindole (DAPI)-labeled […] (left images). […] Thus, gelatinolytic activity was suppressed in the gelatinase inhibitor-treated group (FIG. 2 (D)).

[2] = test system: skin punch biopsy lesions of female diabetic mice (db/db mice); test: Chronic wound model, two 6-mm skin punch biopsy lesions, topical treatment; assay type: in vivo, mouse
Experimental: Female diabetic mice (db/db mice, 9-10 weeks old, Jackson Laboratory, Bar Harbour, Me.) (n=10 per group) were prepared for aseptic surgery by clipping the hair on the dorsal thorax and scrubbing the skin with betadine followed by alcohol. […] Each wound was covered with an occlusive dressing following biopsy. The mice recovered on a cage with clean bedding on a heating pad. Mice received buprenorphine subcutaneously (1.5-2.5 mg/kg) at the conclusion of surgery and again 3-5 hours later. Mice were administered 0.5 mL of warm sterile saline intraperitoneally at the conclusion of surgery. […] Wound closure was determined every day for each animal using the initial and final wound diameters, with the percentage wound closure calculated as [(initial−final)/initial]×100.
On day 12, half of the mice (n=10) were sacrificed and the wounds of each animal excised. The remaining mice continued treatment at the dosages provided above once a day until day 23, when they were sacrificed On the day of sacrifice, the wounds of each mouse were excised, and analyzed by histology, gelatin zymography and Western blot, and in situ gelatin zymography.
Female diabetic mice (db/db mice; 9-10 weeks old, Jackson Laboratory, Bar Harbour, Me.) (n=10 per group) were prepared for aseptic surgery by clipping the hair on the dorsal thorax and scrubbing the skin with betadine followed by alcohol. […] Each wound was covered with an occlusive dressing following biopsy. The mice recovered on a cage with clean bedding on a heating pad. Mice received buprenorphine subcutaneously (1.5-2.5 mg/kg) at the conclusion of surgery and again 3-5 hours later. Mice were administered 0.5 mL of warm sterile saline intraperitoneally at the conclusion of surgery. […] Wound closure was determined every day for each animal using the initial and final wound diameters, with the percentage wound closure calculated as [(initial−final)/initial]×100.
Female diabetic mice (db/db mice) (n=10 mice per group, n=2 wounds per mouse, 9-10 weeks old, Jackson Laboratory, Bar Harbour, Me.) were prepared for aseptic surgery by clipping the hair on the dorsal thorax and scrubbing the skin with betadine followed by alcohol. […] Each wound was covered with an occlusive dressing following biopsy. The mice recovered on a cage with clean bedding on a heating pad. Mice received buprenorphine subcutaneously (1.5-2.5 mg/kg) at the conclusion of surgery and again 3-5 hours later. Mice were administered 0.5 mL of warm sterile saline intraperitoneally at the conclusion of surgery. […] Wound closure was determined every day for each animal using the initial and final wound diameters, with the percentage wound closure calculated as [(initial−final)/initial]×100.

[3] = test system: gelatinase activity in wound tissues of diabetic mice; test: In-situ gelatin zymography with DQ-gelatin (Example 5); assay type: in vivo, mouse; details: db/db mice; compared to vehicle
Experimental: (§1) Fresh wound tissue was cut, embedded in OCT compound, and cryosectioned at a thickness of 12-μm in preparation for hematoxylin-eosin (H&E) staining. Morphological assessment of re-epithelialization was performed on a Nikon Eclipse 90i Fluorescent Microscope (Nikon Instruments Inc., Melville, N.Y., USA) (Tkalcevic et al., Toxicol. Pathol. 37 (2), 183-192 (2009)). In situ gelatin zymography was performed as described (Oh et al., J. Neurosci. 19 (19), 8464-8475 (1999)). Briefly, unfixed cryostat sections (12-μm-thick) of wound tissues were incubated in a reaction buffer (50 mM TBS pH 7.6) containing DQ-gelatin conjugate (Molecular Probes, Eugene, Oreg., USA) at 37° C. for 6 h. After fixation in 4% paraformaldehyde in PBS, cells were counterstained with DAPI (Molecular Probes, Eugene, Oreg., USA) and the images were visualized by fluorescence microscopy.

[4] = test system: wounds of female diabetic db/db mice; test: Excisional diabetic wound model, single 8-mm wound, topical treatment; assay type: in vivo, mouse
From the text: (§2) Single excisional wounds 8-mm in diameter were made with a biopsy punch (Miltex, York, Pa., USA) using aseptic technique in the shaved dorsal regions of female diabetic db/db mice and female wild-type mice under isoflurane anesthesia. […] Wounds were photographed and immediately covered with a sterile dressing (3M Tegaderm™ Transparent Dressing, Butler Schein Animal Health, Inc., Dublin, Ohio). Cellulose acetate collars were made in-house from expired films and mounted on the wild-type mice to prevent them from disturbing the wounds on their back. […] On days 1, 3, 7, 10, and 14, digital photographs of wounds were taken while animals were under isoflurane anesthesia. […] The wounds with minimal surrounding healthy tissue were excised and either flash-frozen in liquid nitrogen for protein expression profiling or embedded in optimal cutting temperature (OCT) compound (Tissue-Tek, Torrance, Calif., USA) followed by cryosectioning for histological assessment.
(§3) Digital images were analyzed for wound areas using the NIH ImageJ version 1.45 software. Photographs of each wound were taken using a digital camera (Olympus SP-800UZ, Center Valley, Pa., USA), which was statically mounted on a tripod at a fixed distance above the mouse wound. A ruler was included in the photographic frame to allow ImageJ calibration. The wound outline was defined from the photographic image and the ImageJ software calculated the wound area. Wound closure was expressed as the change in wound area relative to that from day 0.
(§4) Wound closures are expressed as mean±SD (n=35 on day 1; n=28 on day 3; n=21 on day 7; n=14 on day 10; n=7 on day 14). Wound closures and levels of MMP-8 and MMP-9 were analyzed using a paired Student t-test; p<0.05 was considered statistically significant.
as §1

[5] = test system: wounds of female wild-type mice; test: Excisional wound model, single 8-mm wound, topical treatment, wild-type mice; assay type: in vivo, mouse
From the text: as §2, §3, §4, §1

[6] = test system: animal models of cancer metastasis, stroke, hemorrhage, spinal cord and brain injury; details: prostate, breast cancer and T-cell lymphoma metastasis, ischemic stroke, subarachnoid hemorrhage, traumatic brain injury, testosterone-induced neurogenesis; cited from earlier work

Compound: Nc1ccc(Oc2ccc(S(=O)(=O)CC3CS3)cc2)cc1 (stereo not shown) [p-amino SB-3CT]
- wound gelatinolytic activity (in situ gelatin zymography) [1]: suppression of gelatinolytic activity
- difference in wound healing between treated and vehicle groups ([2]; Example 3, 0.25 mg/wound once per day, 13 days, vehicle saline): Significant differences in wound healing
- wound closure ([2]; day 6, 0.25 mg/wound topical once per day, vehicle saline, db/db mice): 37.0±9.5%

Compound: Nc1ccc(Oc2ccc(S(=O)(=O)CC3CS3)cc2)cc1 (stereo not shown) [ND-322]
- gelatinase activity in wound tissues (in-situ zymography) [3]: significantly decreased
- effect on wound healing compared to vehicle ([4]; 0.25 mg/wound/day topical): accelerated wound healing
- wound closure ([4]; day 10, 0.25 mg/wound/day topical, n=14, p<0.05 vs vehicle): 70±16%
- re-epithelialization (H&E staining) ([4]; day 14): complete re-epithelialization
- wound closure ([4]; day 14, 0.25 mg/wound/day topical, n=7, p<0.01 vs vehicle): 92±4%
- difference in wound closure vs vehicle ([4]; days 1, 3, and 7, p>0.2): not statistically significant
- effect on wound healing compared to vehicle ([5]; 0.25 mg/wound/day topical, p>0.25): did not accelerate healing
- wound closure ([5]; day 7, 0.25 mg/wound/day topical, n=21): 62±19%
- wound closure ([5]; day 10, 0.25 mg/wound/day topical, n=14): 82±11%
- re-epithelialization (H&E staining) ([5]; day 14): completely re-epithelialized
- wound closure ([5]; day 14, 0.25 mg/wound/day topical, n=7): 96±4%

Compound: O=S(=O)(CC1CS1)c1ccc(Oc2ccccc2)cc1 (stereo not shown) [SB-3CT, 2-(((4-phenoxyphenyl)sulfonyl)methyl)thiirane]
- wound closure ([2]; at 13-14 days, SB-3CT-treated db/db mice (0.25 or 1.25 mg/wound per day)): > 90%
- wound closure ([2]; day 6, 0.25 mg/wound per day topical, vehicle DMSO, db/db mice): 49.6±14.0%
- wound closure ([2]; day 6, 1.25 mg/wound per day topical, vehicle DMSO, db/db mice): 50.0±7.4%
- difference in wound closure between vehicle and treated mice ([2]; starting on day 2, db/db mice, Example 1): Significant differences (p<0.05)
- efficacy in animal models [6]: effective
